Like-named read-outs stand apart in the source and are kept apart here.
Key:
Format in all cases: cell-based
[1] = HCV Replicon 2A CC50, calcein AM (Example Q); conditions: calcein AM fluorescence, read-out: HCV Replicon 2A CC50 (nM) (per Ex. Q)
Procedure: (§1) Compounds were serially diluted in ten steps of 1:3 dilutions in 384-well plates. All serial dilutions were performed in four replicates per compound within the same 384-well plate. An HCV protease inhibitor ITMN-191 at […] was added as a control of 100% inhibition of HCV replication while puromycin at 10 mM was included as a control of 100% cytotoxicity. To each well of a black polystyrene 384-well plate (Greiner Bio-one, Monroe, NC), 90 μL of cell culture medium (without Geneticin) containing 2000 suspended HCV replicon cells was added with a Biotek μFlow workstation. For compound transfer into cell culture plates, 0.4 μL of compound solution from the compound serial dilution plate was transferred to the cell culture plate on a Biomek FX workstation. The DMSO concentration in the final assay wells was 0.44%. The plates were incubated for 3 days at 37° C. with 5% CO2 and 85% humidity. The HCV replicon assay was a multiplex assay, able to assess both cytotoxicity and antireplicon activity from the same well. The CC50 assay was performed first. The media in the 384-well cell culture plate was aspirated, and the wells were washed four times with 100 μL of PBS each, using a Biotek ELX405 plate washer. A volume of 50 μL of a solution containing 400 nM calcein AM (Anaspec, Fremont, CA) in 1×PBS was added to each well of the plate with a Biotek μFlow workstation. The plate was incubated for 30 min at room temperature before the fluorescence signal (excitation 490 nm, emission 520 nm) was measured with a Perkin-Elmer Envision plate reader. The EC50 assay was performed in the same wells as the CC50 assay. The calcein-PBS solution in the 384-well cell culture plate was aspirated with a Biotek ELX405 plate washer. A volume of 20 μL of Dual-Glo luciferase buffer (Promega, Madison, WI) was added to each well of the plate with a Biotek μFlow Workstation. The plate was incubated for 10 min at room temperature. A volume of 20 μL of a solution containing a 1:100 mixture of Dual-Glo Stop & Glo substrate (Promega, Madison, WI) and Dual-Glo Stop & Glo buffer (Promega, Madison, WI) was added to each well of the plate with a Biotek μFlow Workstation. The plate was then incubated at room temperature for 10 min before the luminescence signal was measured with a Perkin-Elmer Envision Plate Reader.

[2] = in vitro; conditions: human
Procedure: Huh7 hepatoblastoma cells were seeded onto 96-well plates and incubated at 37° C. with 5% CO2 overnight. The plates were seeded at a cell concentration that will yield >70% confluent monolayers in each well after overnight incubation. Eight 3-fold serial dilutions of compounds were diluted in test media (MEM supplemented with 2% FBS and 50 μg/mL gentamicin). The highest test compound concentration was 50 μg/mL. 100 μL of each concentration was added to 5 test wells on the 96-well plate. Of these 5 test wells, 3 wells of each dilution were infected with dengue virus type 2, diluted in test media (approximately 2000 CCID50 per well for an MOI of 0.07). Test medium (100 μL) with no virus was added to 2 wells to represent the uninfected cytotoxicity controls. Six additional infected wells received 100 μL media alone as untreated virus controls. Further, 100 μL of media alone was added to 6 uninfected wells to serve as uninfected, untreated controls. Cultures were incubated at 37° C.+5% CO2 until >80% CPE is observed. After cytopathic effect (CPE) is observed microscopically, 0.011% neutral red dye was added for approximately 2 hours. The neutral red dye was removed and wells were rinsed once with PBS to remove residual, unincorporated dye. A 50:50 Sorensen citrate buffer/ethanol solution was added and incubated at room temperature for >30 minutes with agitation, followed by measurement of neutral red dye using a spectrophotometer at 540 nm. The resulting optical density measurement was converted to percent signal of the infected, untreated cell control normalizing to virus controls. EC50 and CC50 values were determined by linear regression analysis.

[3] = system: HCV Replicon 2A; experiment: HCV Replicon 2A EC50 (Example Q); conditions: Hepatitis C virus, 72 h, read-out: HCV Replicon 2A EC50 (nM) (per Ex. Q)
Procedure: as §1

[4] = HCV replicon cells, 3 days, Dual-Glo luciferase

SMILES	CC50 at 3 days ([1]; HCV replicon cells (2A))	CC50 [2]	EC50 [3, 4]	CC50 at 3 days ([1]; HCV replicon cells)	EC50 [3]
CCCCCCCCCCCCCCCCCCOC[C@H](COP(=O)(O)OC[C@@]1(C#N)O[C@@H](c2ccc3c(N)ncnn23)[C@H](O)[C@@H]1O)OCc1cc(F)cc(C#N)c1 [Compound 1, ((2R,3S,4R,5S)-5-(4-aminopyrrolo[2,1-f][1,2,4]triazin-7-yl)-2-cyano-3,4-dihydroxytetrahydrofuran-2-yl)methyl ((R)-2-((3-cyano-5-fluorobenzyl)oxy)-3-(octadecyloxy)propyl) hydrogen phosphate]	> 44400 nM	18 µM	20600 nM	–	–
CCCCCCCCCCCCCCCCCCOC[C@H](COP(=O)(O)OC[C@@]1(C#N)O[C@@H](c2ccc3c(N)ncnn23)[C@H](O)[C@@H]1O)OCc1ccc(C#N)c(Cl)c1 [Compound 7, ((2R,3S,4R,5S)-5-(4-aminopyrrolo[2,1-f][1,2,4]triazin-7-yl)-2-cyano-3,4-dihydroxytetrahydrofuran-2-yl)methyl ((R)-2-((3-chloro-4-cyanobenzyl)oxy)-3-(octadecyloxy)propyl) hydrogen phosphate]	> 44400 nM	19 µM	30600 nM	–	–
CCCCCCCCCCCCCCCCCCC[C@H](COP(=O)(O)OC[C@@]1(C#N)O[C@@H](c2ccc3c(N)ncnn23)[C@H](O)[C@@H]1O)OCc1ccc(-n2cncn2)c(C#N)c1 [Compound 30, ((2R,3S,4R)-5-(4-aminopyrrolo[2,1-f][1,2,4]triazin-7-yl)-2-cyano-3,4-dihydroxytetrahydrofuran-2-yl)methyl ((R)-2-((3-cyano-4-(1H-1,2,4-triazol-1-yl)benzyl)oxy)henicosyl) hydrogen phosphate]	–	5.9 µM	–	42400 nM	15800 nM
CCCCCCCCCCCCCCCCC[C@H](COP(=O)(O)OC[C@@]1(C#N)O[C@@H](c2ccc3c(N)ncnn23)[C@H](O)[C@@H]1O)OCc1cc(F)cc(C#N)c1 [Compound 36, ((2R,3S,4R,5S)-5-(4-aminopyrrolo[2,1-f][1,2,4]triazin-7-yl)-2-cyano-3,4-dihydroxytetrahydrofuran-2-yl)methyl ((R)-2-((3-cyano-5-fluorobenzyl)oxy)nonadecyl) hydrogen phosphate]	–	17 µM	–	> 44400 nM	21800 nM
CCCCCCCCCCCCCCCCCC[C@@H](COP(=O)(O)OC[C@@]1(C#N)O[C@@H](c2ccc3c(N)ncnn23)[C@H](O)[C@@H]1O)OCc1cc(F)cc(C#N)c1 [Compound 37, ((2R,3S,4R)-5-(4-aminopyrrolo[2,1-f][1,2,4]triazin-7-yl)-2-cyano-3,4-dihydroxytetrahydrofuran-2-yl)methyl ((S)-2-((3-cyano-5-fluorobenzyl)oxy)icosyl) hydrogen phosphate]	> 44400 nM	16 µM	26000 nM	–	–
CCCCCCCCCCCCCCCCCCCC[C@H](COP(=O)(O)OC[C@@]1(C#N)O[C@@H](c2ccc3c(N)ncnn23)[C@H](O)[C@@H]1O)Oc1cccc(C#N)c1 [Compound 51, ((2R,3S,4R,5S)-5-(4-aminopyrrolo[2,1-f][1,2,4]triazin-7-yl)-2-cyano-3,4-dihydroxytetrahydrofuran-2-yl)methyl ((R)-2-(3-cyanophenoxy)docosyl) hydrogen phosphate]	> 44400 nM	21 µM	19200 nM	–	–
CCCCCCCCCCCCCCCCCOC[C@H](COP(=O)(O)OC[C@@]1(C#N)O[C@@H](c2ccc3c(N)ncnn23)[C@H](O)[C@@H]1O)OCc1cc(F)cc(C#N)c1 [Compound 53, ((2R,3S,4R,5S)-5-(4-aminopyrrolo[2,1-f][1,2,4]triazin-7-yl)-2-cyano-3,4-dihydroxytetrahydrofuran-2-yl)methyl ((R)-2-((3-cyano-5-fluorobenzyl)oxy)-3-(heptadecyloxy)propyl) hydrogen phosphate]	36200 nM	16 µM	15500 nM	–	–
CCCCCCCCCCCCCCCCCCCC[C@@H](COP(=O)(O)OC[C@@]1(C#N)O[C@@H](c2ccc3c(N)ncnn23)[C@H](O)[C@@H]1O)OCc1cc(F)cc(C#N)c1 [Compound 70, ((2R,3S,4R)-5-(4-aminopyrrolo[2,1-f][1,2,4]triazin-7-yl)-2-cyano-3,4-dihydroxytetrahydrofuran-2-yl)methyl ((S)-2-((3-cyano-5-fluorobenzyl)oxy)docosyl) hydrogen phosphate]	–	12 µM	–	42700 nM	25200 nM
CCCCCCCCCCCCCCCCCCOC[C@@H](COP(=O)(O)OC[C@@]1(C#N)O[C@@H](c2ccc3c(N)ncnn23)[C@H](O)[C@@H]1O)Oc1ccc(C#N)nc1 [Compound 72, ((2R,3S,4R,5S)-5-(4-aminopyrrolo[2,1-f][1,2,4]triazin-7-yl)-2-cyano-3,4-dihydroxytetrahydrofuran-2-yl)methyl ((S)-2-((6-cyanopyridin-3-yl)oxy)-3-(octadecyloxy)propyl) hydrogen phosphate]	–	17 µM	–	> 44400 nM	> 44400 nM
CCCCCCCCCCCCCCCCCCOC[C@H](COP(=O)(O)OC[C@@]1(C#N)O[C@@H](c2ccc3c(N)ncnn23)[C@H](O)[C@@H]1O)OCc1ccc(C#N)cc1OC [Compound 73, ((2R,3S,4R)-5-(4-aminopyrrolo[2,1-f][1,2,4]triazin-7-yl)-2-cyano-3,4-dihydroxytetrahydrofuran-2-yl)methyl ((R)-2-((4-cyano-2-methoxybenzyl)oxy)-3-(octadecyloxy)propyl) hydrogen phosphate]	> 44400 nM	19 µM	20400 nM	–	–
CCCCCCCCCCCCCCC[C@H](COP(=O)(O)OC[C@@]1(C#N)O[C@@H](c2ccc3c(N)ncnn23)[C@H](O)[C@@H]1O)OCc1cc(F)cc(C#N)c1 [Compound 80, ((2R,3S,4R,5S)-5-(4-aminopyrrolo[2,1-f][1,2,4]triazin-7-yl)-2-cyano-3,4-dihydroxytetrahydrofuran-2-yl)methyl ((R)-2-((3-cyano-5-fluorobenzyl)oxy)heptadecyl) hydrogen phosphate]	36900 nM	–	21200 nM	–	–
CCCCCCCCCCCCCCCCCC[C@H](COP(=O)(O)OC[C@@]1(C#N)O[C@@H](c2ccc3c(N)ncnn23)[C@H](O)[C@@H]1O)OCc1cc(Cl)cc(C#N)c1 [Compound 81, ((2R,3S,4R,5S)-5-(4-aminopyrrolo[2,1-f][1,2,4]triazin-7-yl)-2-cyano-3,4-dihydroxytetrahydrofuran-2-yl)methyl ((R)-2-((3-chloro-5-cyanobenzyl)oxy)icosyl) hydrogen phosphate]	37900 nM	–	15900 nM	–	–
CCCCCCCCCCCCCCCCCCC[C@H](COP(=O)(O)OC[C@@]1(C#N)O[C@@H](c2ccc3c(N)ncnn23)[C@H](O)[C@@H]1O)OCc1cc(Cl)cc(C#N)c1 [Compound 82, ((2R,3S,4R,5S)-5-(4-aminopyrrolo[2,1-f][1,2,4]triazin-7-yl)-2-cyano-3,4-dihydroxytetrahydrofuran-2-yl)methyl ((R)-2-((3-chloro-5-cyanobenzyl)oxy)henicosyl) hydrogen phosphate]	37600 nM	–	19200 nM	–	–

Reference: US20250034182A1, “PHOSPHOLIPID COMPOUNDS AND METHODS OF MAKING AND USING THE SAME” (priority 2021, published 2025)
